Source: US8030511B2, “Method for the manufacture of therapeutic compounds and compositions, compounds and compositions produced therewith, and their use” (priority 2006, dated 2011)

What was measured:
[1] = HPLC of commercial organic nitrites diluted in deoxygenated water versus NO-saturated water; assay type: physicochemical; settings: for size of HPLC peak (UV max 225 nm), dilution in de-aerated NO saturated solutions: Novapak C8 or CN column
Method: Analysis of reaction mixtures and commercial organic nitrites and nitrates was made by high performance liquid chromatography (HPLC) using reverse phase chromatography on C8, C18 or CN columns (Waters Inc. NOVAPAK™ 4 μm particle size 8×100 mm radial compression columns) by means of two LDC Constametric pumps delivering a constant total flow of 1 ml per min, controlled by a computerized gradient control system generating a linear gradient of 0-100% methanol (elution solvent B) in 33 min, starting 1 min after injecting sample in the aqueous initial elution solvent (solvent A) which contained 5 mM ammonium formiate at pH 6. Separation of eluted compounds was determined by an LDC Spectromonitor variable UV monitor set at 210 nm, followed by a Pharmacia Wavescan wavelength scanning detector producing UV scans between 190 and 370 nm at 4 s intervals which were stored on a computer and analyzed after each HPLC run. The output from the LDC Spectromonitor was continuously recorded on a strip chart recorder.
HPLC: On all three Novapak columns and on the Thermo column a single peak of product, from the reaction between propanol and NO gas, eluted at a gradient concentration of 70-80% methanol. In the NOVAPAK C18 system this corresponded to an elution time of approximately 28 min (FIG. 12, panel C). […] When a standard sample of propyl nitrite (Karl Industries Inc., Aurora, Ohio, USA) diluted in a gas-type cylinder in deoxygenated (10 min He purging) water at 1:1000 was injected, a small peak at 28 min was obtained (FIG. 12, panel A), having an identical UV absorbance max at 225 nm. […] Similar results were obtained on the C8 and CN columns, a single retained peak was obtained from the reaction mixture consisting of propanol and NO, although at somewhat shorter retention times, compared with the C18 system.
Commercial samples of ethyl nitrite, butyl nitrite, and isobutyl nitrite (Sigma-Aldrich) were diluted anaerobically as above and injected onto the HPLC system, using either the Novapak C8 or CN column. Peaks with UV absorbance maxima of approximately 225 nm were obtained in all the samples, but at different retention times corresponding to the expected differences judged from the lipophilic chain length of the compounds. All these peaks were larger if the dilution of the organonitrite had been done in de-aerated NO saturated solutions. The respective peaks with UV max at 225 nm coincided with single similar peaks obtained by treating the corresponding alcohol (ethanol, butanol, isobutanol) with NO gas. This was taken as evidence that the corresponding organic mononitrite had formed.

[2] = Cederqvist et al., 1994; cited from earlier work
[3] = Intravenous infusion of NO dissolved in liquid medium in L-NAME pre-treated rabbit; assay type: in vivo
Method: Experiments were approved by the local ethics committee on animal experimentation. A male New Zealand white rabbit was anesthetised, prepared and examined as in the protocol presented in Example 2. The rabbit was pre-treated with L-NAME (30 mg kg^−1) and received one infusion with NO-gas dissolved in normal saline and one with NO-gas dissolved in lipid emulsion ([…]®, Fresenius Kabi) through the catheter in the jugular vein without carrier flow. The infusion rate was for both liquids 0.5 ml kg^−1 min^−1. There was a recovery period between the two infusions for about 200 min.
The infusion liquids were created the same way. First the liquid was de-aerated for 20 min, in a gas-tight glass chamber with a rubber membrane with an inert gas; in this case helium gas, but nitrogen, argon etc could also be used. After this no oxygen were allowed to enter the liquid throughout the following procedure. The liquid was then purged with pure NO of a few minutes. The liquid was then collected through the rubber membrane in a gas-tight syringe with needle and from this syringe infused by means of syringe pump (864 Syringe Pump, Univentor LTD., Zejtun, Malta) in the jugular vein catheter.

[4] = Verification of NO donating capacity (1% sodium iodide in hot acetic acid, chemiluminescence); assay type: physicochemical
Text: Samples of eluents from the HPLC system were collected and analyzed for NO/nitrite content by injection into a reaction vessel containing 1% sodium iodide in hot acetic acid. Released nitric oxide was purged into a chemiluminescence analyzer system optimized for detection of nitric oxide by chemiluminescence reaction with ozone and determination of NO+ozone-generated excited NO2 product through counting of emitted photons.

[5] = system: venous gas embolism; experiment: Treatment of venous gas embolism in an animal with inhibited NO production; assay type: in vivo
Text: The beneficial effects may be induction of vasodilation in the pulmonary vasculature, inhibition of aggregation of trombocytes and/or minor vasodilation in the whole or parts of the systemic circulation, for example in the coronary circulation.

[6] = before 30 mg kg^−1 throughout 10 min

In the case of `CCCON=O` [propyl nitrite], the “size of 28 min HPLC peak, dilution in water saturated with NO gas vs deoxygenated water” value ([1]; dilution 1:1000, Novapak C18) is reported as 5-10 times.

For `CC(C)CON=O` [isobutyl nitrite], the “size of HPLC peak (UV max 225 nm), dilution in de-aerated NO saturated solutions” value (from here on “size … in de-aerated NO saturated solutions”) [1] is given as “larger” and the “generation of NO in vivo” value [2] is given as “generate NO”.

For `CCON=O` [ethyl nitrite], the “size … in de-aerated NO saturated solutions” value [1] is listed as “larger” and the “generation of NO in vivo” value [2] is listed as “generate NO”.

For `CC(C)CO[N+](=O)[O-]` [isobutyl nitrate], the “generation of NO in vivo” value [2] is given as “generate NO”.

With `COC(=O)[C@@H](N)CCCNC(=N)N[N+](=O)[O-]` [L-NAME, N^G-nitro-L-arginine methyl ester] the “exhaled nitric oxide after L-NAME infusion” value ([3]; 30 mg kg^−1 throughout 10 min) was under 1 ppb, the “heart rate (HR) after L-NAME infusion” value ([3]; 30 mg kg^−1 throughout 10 min) was 258 beats min^−1 and the “systemic mean arterial blood pressure (MAP) after L-NAME infusion” value ([3]; 30 mg kg^−1 throughout 10 min) was 128 cmH2O. The “End-tidal CO2 and the relevant blood gas parameters” value ([3]; L-NAME 30 mg kg^−1 throughout 10 min) was “normal”, the “exhaled nitric oxide before L-NAME infusion” value [3, 6] was 19 ppb and the “heart rate (HR) before L-NAME infusion” value [3, 6] was 274 beats min^−1. For the same compound, the “systemic mean arterial blood pressure (MAP) before L-NAME infusion” value [3, 6] was 103 cmH2O.

For `O=[N+]([O-])OCC(CO[N+](=O)[O-])O[N+](=O)[O-]` [Nitroglycerin, glyceryl trinitrate], the “release of NO by mild reduction treatment” value [4] is listed as “did not yield a release of NO” and the “generation of NO in vivo” value [2] is listed as “generate NO”.

For `[N]=O` [inhaled nitric oxide, nitric oxide], the “treatment of venous gas embolism” value [5] was “impossible to treat”.

In the case of `CCCCON=O` [butyl nitrite], the “size … in de-aerated NO saturated solutions” value [1] is listed as “larger” and the “generation of NO in vivo” value [2] is listed as “generate NO”.

In the case of `CC(C)CCON=O` [isoamyl nitrite], the “generation of NO in vivo” value [2] is given as “generate NO”.
